This is an account of results in patent US20230103631A1, “PEPTIDES AS SELECTIVE GIP RECEPTOR AGONISTS” (Sanofi, priority 2020, published 2023).

The target in series [1] is human GLP-1 receptor (hGLP-1R) (Homo sapiens, UniProt P43220). The series is described as follows: cAMP HTRF assay, HEK-293 cell line over-expressing human GLP-1 receptor. The conditions noted are these: HEK-293, cAMP, 0% HSA. The class given is cell-based. The procedure:
Each vial contained 1.8 ml cells. The vials were slowly frozen to −80° C. in isopropanol, and then transferred in liquid nitrogen for storage.
Prior to their use, frozen cells were thawed quickly at 37° C. and washed (5 min at 900 rpm) with 20 ml cell buffer (1× HBSS; 20 mM HEPES, plus 0.1% HSA if indicated in Example conditions).
For measurement of cAMP generation, 5 μl cells (final 5000 cells/well) and 5 μl of test compound were added to a 384-well plate, followed by incubation for 30 min at room temperature.
The cAMP generated was determined using a kit from Cisbio Corp. based on HTRF (Homogenous Time Resolved Fluorescence). The cAMP assay was performed according to manufacturer's instructions (Cisbio).
(Time-resolved FRET reads energy transfer from a long-lived donor to a nearby acceptor.)

The nature of series [2]: physchem. Conditions: for Soluble amount: 24 h, pH 7.4; for solubility at 24 h: pH 7.4, Soluble amount. Format: physicochemical. The procedure:
Prior to the solubility measurement of a peptide batch, its purity was determined through UHPLC/MS. […] Therefore, solutions from solid samples were prepared in a buffer system with a concentration of 10 mg/ml compound based on the previously determined % purity: Solubility buffer system A) 100 mM phosphate buffer pH 7.4 […] Solubility buffer system C) 100 mM phosphate buffer pH 7.4, 2.7 mg/ml m-cresol UHPLC-UV was performed after 1 h of gentle agitation and storage at 5° C. over night (24 h) from the supernatant, which was obtained after 15 min of centrifugation at 2500 RCF (relative centrifugal acceleration). […] The different UV extinction coefficients of sample and reference peptide were calculated based on the different amino acid sequences and considered in the concentration calculation. The analytical method used was Analytical UHPLC Method A. Peptide samples were prepared in solubility buffer system A or C and solubility was assessed as described in Methods.

In series [3] the test system is C57Bl/6 mice. Put plainly: Intraperitoneal glucose tolerance test (ipGTT) after s.c. treatment. Format: in vivo. The conditions noted are these: 10 nmol/kg s.c. 6 h before i.p. glucose load, mean ± SEM. The procedure: Healthy, normoglycemic male C57Bl/6NCrl mice were ordered in an age of 9-10 weeks with an approximate body weight (BW) of 24-26 g at Charles River Laboratories Deutschland GmbH, 97633 Sulzfeld, Germany. Mice were shipped grouped housed (N=4 per cage), acclimatized for one week and remained grouped housed throughout the entire study. Mice were housed under vivarium conditions that included a 12 h light/dark cycle (light phase 06:00 AM-06:00 PM), mean room temperature of 22±2° C. and a relative mean humidity of 55±10%. All animals had free access to food (Ssniff R/M-H diet) and water prior to study start.
The primary objective of the study was to investigate the compound-induced lowering of the blood glucose excursion and improvement of glucose tolerance in a mouse ipGTT setting and therefore the primary parameters included blood glucose, delta blood glucose (normalized to the time point just prior to the i.p. glucose challenge, t=0 h) and their respective calculated area under curve (AUC) values. The study was performed as an acute, single dosing study with 6 groups and the male animals were randomly divided to groups of 7-8 mice per group. Dose-dependent pharmacodynamic blood glucose lowering efficacy of the GIPR agonist was analyzed with s.c. injections 6 h before the i.p. glucose load in the dose range from 3 up to 100 nmol/kg and compared to the vehicle group as well as the semaglutide positive control at a dose of 10 nmol/kg.
In more detail, mice were fed overnight and on the following morning brought to the lab with food removed but ad libitum access to water. Blood samplings (5 μl) were performed at: −6.5, −0.5, 0, 0.17, 0.5, 1, 1.5, 2 and 3 h before and after the glucose bolus of 1 g glucose per kg BW i.p. given at time point t=0 h. On time point t=0.17 h an additional K-EDTA plasma sample from 60-80 μl blood was taken for plasma insulin analysis. Blood was withdrawn from the tip of the tail. The GIPR agonist and semaglutide were dissolved in 10 mM phosphate buffer pH 7.4 with 2.3% glycerol and 0.01% polysorbat 20 (vehicle) and s.c. treatment was performed −6 h before the glucose load (t=0 h) using an injection volume of 5 ml/kg. The injection solutions were freshly prepared prior to the experiment using sterile filtered vehicle solution.
Blood glucose was determined enzymatically (Gluco-quant® Glucose/HK kit on Roche/Hitachi 912). Plasma insulin was determined using a mouse/rat insulin sandwich immunoassay kit from Meso Scale Discovery.
All data were collected using Microsoft Excel. None of the data were collected online. The results are expressed as means±standard error of the mean (SEM). As primary study parameters, blood glucose, baseline (time point t=0 h) subtracted delta blood glucose and their respective calculated area under curve (AUC) values were determined. The respective AUC data were calculated using the trapezoid rule for the time period t=0 h until t=2 h.
The statistical analysis of the ipGTT blood glucose excursion data response following subcutaneous compound or vehicle treatment was performed on the calculated AUC values of blood glucose raw data as well as the calculated AUC values for baseline subtracted delta blood glucose data. In a first step the Levene's test was used to test for equality of variances between groups. Where Levene's test was significant (p s 0.05), a rank transformation of the calculated AUC data was applied to stabilize the variances before ANOVA analysis was conducted. Where Levene's test was not significant (p>0.05) ANOVA was conducted without prior rank transformation. In a second step a One-way ANOVA analysis for factor treatment followed by Dunnett's multiple comparisons test vs. vehicle group was used to test for statistical differences. Different levels of significance were defined as *=p<0.05, **=p<0.001, ***=p<0.0001. All analyses were performed using SAS (version 9.4) under Linux via the interface software EverSt@t V6.1. […]

*1 amine or outer side, *2 acyl side, *3 side chain or, on linkers, in order; H or OH if unused. Where a SMILES comes first, the peptide text is derived from it. Side-chain parts run from the residue outwards. [ ]: non-standard residue; d: D form. The star is where a group is joined. C20 diacid = O=C(O)CCCCCCCCCCCCCCCCCCC(=O)*; C18 diacid = O=C(O)CCCCCCCCCCCCCCCCC(=O)*; γGlu = O=C(O)[C@H](CCC(=O)[*:2])N[*:1]; AEEA = NCCOCCOCC(=O)O; Aib = CC(C)(N)C(=O)O; Sar = CNCC(=O)O

Sequence of human GLP-1 receptor (hGLP-1R) (P43220 24-463): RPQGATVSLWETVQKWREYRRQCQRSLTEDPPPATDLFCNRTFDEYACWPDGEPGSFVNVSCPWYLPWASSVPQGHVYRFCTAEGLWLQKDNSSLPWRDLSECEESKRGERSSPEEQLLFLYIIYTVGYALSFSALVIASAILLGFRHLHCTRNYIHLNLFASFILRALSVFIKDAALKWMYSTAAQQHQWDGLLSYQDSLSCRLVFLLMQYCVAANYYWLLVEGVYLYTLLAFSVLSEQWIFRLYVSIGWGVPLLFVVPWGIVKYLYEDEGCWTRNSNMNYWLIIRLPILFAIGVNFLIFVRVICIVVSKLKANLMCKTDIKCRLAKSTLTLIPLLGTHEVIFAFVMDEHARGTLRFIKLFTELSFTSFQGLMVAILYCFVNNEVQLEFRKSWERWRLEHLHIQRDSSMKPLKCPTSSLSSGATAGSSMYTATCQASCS

`CC[C@H](C)[C@H](NC(=O)[C@H](Cc1ccccc1)NC(=O)[C@H](CCC(=O)O)NC(=O)[C@H](CCC(=O)O)NC(=O)[C@H](CCC(N)=O)NC(=O)[C@H](Cc1c[nH]cn1)NC(=O)[C@@H](NC(=O)[C@H](CCCNC(=N)N)NC(=O)[C@H](CC(=O)O)NC(=O)[C@H](CCCCNC(=O)COCCOCCNC(=O)COCCOCCNC(=O)CC[C@H](NC(=O)CC[C@H](NC(=O)CCCCCCCCCCCCCCCCCCC(=O)O)C(=O)O)C(=O)O)NC(=O)C(C)(C)NC(=O)[C@@H](NC(=O)[C@H](CO)NC(=O)[C@H](CC(C)C)NC(=O)[C@H](CC(=O)O)NC(=O)[C@H](CO)NC(=O)[C@@H](NC(=O)[C@H](Cc1ccccc1)NC(=O)[C@@H](NC(=O)CNC(=O)[C@H](CCC(=O)O)NC(=O)C(C)(C)NC(=O)[C@@H](N)Cc1ccc(O)cc1)[C@@H](C)O)[C@@H](C)CC)[C@@H](C)CC)[C@@H](C)CC)C(=O)N[C@@H](CCC(=O)O)C(=O)N[C@@H](Cc1c[nH]c2ccccc12)C(=O)N[C@@H](CC(C)C)C(=O)N[C@@H](CC(C)C)C(=O)N[C@@H](C)C(=O)N[C@@H](CCC(N)=O)C(=O)NCC(=O)N1CCC[C@H]1C(=O)N[C@@H](CO)C(=O)N[C@@H](CO)C(=O)NCC(=O)N[C@@H](C)C(=O)N1CCC[C@H]1C(=O)N1CCC[C@H]1C(=O)N1CCC[C@H]1C(=O)N[C@@H](CO)C(N)=O` [SEQ ID NO: 15, H2N-Y-Aib-E-G-T-F-I-S-D-I-S-I-Aib-K[{AEEA}2-{gGlu}2-C20OH]-DRIHQEEFIEWILAQGPSSGAPPPS-NH2] (H-Y[Aib]EGTFISDLSI[Aib]K([AEEA-AEEA-γGlu-γGlu-C20 diacid])DRIHQEEFIEWLLAQGPSSGAPPPS-NH2): the concentration for a half-maximal effect (EC50) (commonly the concentration needed to bring the measured effect to its halfway point) in series [1] is more than 10 nM. For the same molecule, in series [2], the Soluble amount was more than 9.2 mg/mL and the solubility – broadly, how much of the substance goes into solution per volume – at 24 h is more than 10.3 mg/mL.
In series [1], `CC[C@H](C)[C@H](NC(=O)[C@H](Cc1ccccc1)NC(=O)[C@H](CCC(=O)O)NC(=O)[C@H](CCC(=O)O)NC(=O)[C@H](CCC(N)=O)NC(=O)[C@H](Cc1c[nH]cn1)NC(=O)[C@@H](NC(=O)[C@H](CCCNC(=N)N)NC(=O)[C@H](CC(=O)O)NC(=O)[C@H](CCCCNC(=O)CNC(=O)CNC(=O)CNC(=O)CC[C@H](NC(=O)CCCCCCCCCCCCCCCCC(=O)O)C(=O)O)NC(=O)C(C)(C)NC(=O)[C@@H](NC(=O)[C@H](CO)NC(=O)[C@H](CC(C)C)NC(=O)[C@H](CC(=O)O)NC(=O)[C@H](CO)NC(=O)[C@@H](NC(=O)[C@H](Cc1ccccc1)NC(=O)[C@@H](NC(=O)CNC(=O)[C@H](CCC(=O)O)NC(=O)C(C)(C)NC(=O)[C@@H](N)Cc1ccc(O)cc1)[C@@H](C)O)[C@@H](C)CC)[C@@H](C)CC)[C@@H](C)CC)C(=O)N[C@@H](CCC(=O)O)C(=O)N[C@@H](Cc1c[nH]c2ccccc12)C(=O)N[C@@H](CC(C)C)C(=O)N[C@@H](CC(C)C)C(=O)N[C@@H](C)C(=O)N[C@@H](CCC(N)=O)C(=O)NCC(=O)N1CCC[C@H]1C(=O)N[C@@H](CO)C(=O)N[C@@H](CO)C(=O)NCC(=O)N[C@@H](C)C(=O)N1CCC[C@H]1C(=O)N1CCC[C@H]1C(=O)N1CCC[C@H]1C(=O)N[C@@H](CO)C(N)=O` [SEQ ID NO: 16, H2N-Y-Aib-E-G-T-F-I-S-D-I-S-I-Aib-K[{Gly}3-gGlu-C18OH]-DRIHQEEFIEWILAQGPSSGAPPPS-NH2] (H-Y[Aib]EGTFISDLSI[Aib]K([Gly-Gly-Gly-γGlu-C18 diacid])DRIHQEEFIEWLLAQGPSSGAPPPS-NH2) yielded a concentration giving a half-maximal response (EC50) of more than 10 nM. In series [2], this molecule returned a Soluble amount of more than 9.9 mg/mL and a solubility at 24 h of more than 10 mg/mL.
The matching figures for `CC[C@H](C)[C@H](NC(=O)[C@H](Cc1ccccc1)NC(=O)[C@H](CCC(=O)O)NC(=O)[C@H](CCC(=O)O)NC(=O)[C@H](CCC(N)=O)NC(=O)[C@H](Cc1c[nH]cn1)NC(=O)[C@@H](NC(=O)[C@H](CCCNC(=N)N)NC(=O)[C@H](CC(=O)O)NC(=O)[C@H](CCCCNC(=O)CN(C)C(=O)CN(C)C(=O)CN(C)C(=O)CC[C@H](NC(=O)CCCCCCCCCCCCCCCCC(=O)O)C(=O)O)NC(=O)C(C)(C)NC(=O)[C@@H](NC(=O)[C@H](CO)NC(=O)[C@H](CC(C)C)NC(=O)[C@H](CC(=O)O)NC(=O)[C@H](CO)NC(=O)[C@@H](NC(=O)[C@H](Cc1ccccc1)NC(=O)[C@@H](NC(=O)CNC(=O)[C@H](CCC(=O)O)NC(=O)C(C)(C)NC(=O)[C@@H](N)Cc1ccc(O)cc1)[C@@H](C)O)[C@@H](C)CC)[C@@H](C)CC)[C@@H](C)CC)C(=O)N[C@@H](CCC(=O)O)C(=O)N[C@@H](Cc1c[nH]c2ccccc12)C(=O)N[C@@H](CC(C)C)C(=O)N[C@@H](CC(C)C)C(=O)N[C@@H](C)C(=O)N[C@@H](CCC(N)=O)C(=O)NCC(=O)N1CCC[C@H]1C(=O)N[C@@H](CO)C(=O)N[C@@H](CO)C(=O)NCC(=O)N[C@@H](C)C(=O)N1CCC[C@H]1C(=O)N1CCC[C@H]1C(=O)N1CCC[C@H]1C(=O)N[C@@H](CO)C(N)=O` [SEQ ID NO: 17, H2N-Y-Aib-E-G-T-F-I-S-D-I-S-I-Aib-K[{N-MeGly}3-gGlu-C18OH]-DRIHQEEFIEWILAQGPSSGAPPPS-NH2] (H-Y[Aib]EGTFISDLSI[Aib]K([Sar-Sar-Sar-γGlu-C18 diacid])DRIHQEEFIEWLLAQGPSSGAPPPS-NH2): more than 10 nM, more than 11.8 mg/mL and more than 10.9 mg/mL.
Turning to semaglutide [reference compound], the “Incremental blood glucose concentration AUCi” value in series [3] (vehicle +4.93 ± 0.324) was “+1.15 ± 0.255 mmol/L* 0-2 h”. Besides, in series [3] (vehicle +22.15 ± 0.662), the “Blood glucose concentration AUC” value is reported as “+10.21 ± 0.503 mmol/L* 0-2 h”.
